Measurements as given in patent US11577063B2, “Soluble microneedle containing ingredient for controlling release of neurotransmitters” (LG HOUSEHOLD & HEALTH CARE LTD., priority 2015, dated 2023).

Legend:
[1] = target: SNARE complex (SNAP25, SynH3 and Vps proteins) (Homo sapiens, UniProt P60880+P63027+Q16623); assay: Inhibition of SNARE complex formation (SDS-PAGE); assay type: biochemical; conditions: FIG. 4; for ability of inhibiting SNARE complex formation compared with myricetin: at low concentrations; for inhibition of SNARE complex formation: polyphenol 1-50 ppm, room temperature 30 minutes, 12% SDS-PAGE
Chain of SNARE complex (SNAP25, SynH3 and Vps proteins) (P60880 whole entry): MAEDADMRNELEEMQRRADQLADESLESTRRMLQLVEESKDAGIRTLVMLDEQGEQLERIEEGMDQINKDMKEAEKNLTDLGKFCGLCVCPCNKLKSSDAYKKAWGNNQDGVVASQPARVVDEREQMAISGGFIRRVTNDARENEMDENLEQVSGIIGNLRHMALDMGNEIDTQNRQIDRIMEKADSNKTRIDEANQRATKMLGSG
Chain of SNARE complex (SNAP25, SynH3 and Vps proteins) (Q16623 191-266 limits assumed): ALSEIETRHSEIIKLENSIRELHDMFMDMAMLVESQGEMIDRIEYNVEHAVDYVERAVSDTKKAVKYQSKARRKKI
Chain of SNARE complex (SNAP25, SynH3 and Vps proteins) (P63027 1-94 limits assumed): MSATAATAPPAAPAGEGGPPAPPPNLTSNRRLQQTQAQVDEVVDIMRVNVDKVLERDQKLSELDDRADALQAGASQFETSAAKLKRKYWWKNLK
Experimental: SDS-PAGE (sodium dodecyl sulfate-polyacrylamide gel electrophoresis) analysis was performed to investigate the inhibition of SNARE complex formation by polyphenols such as ampelopsin, kaempferol, myricetin, etc. It was investigated whether the SNARE complex formed when SNAP25, SynH3 and Vps proteins are mixed at a molar ratio of 1:1:1 was inhibited by the addition of the polyphenol compound at a concentration of 1-50 ppm. After adding the respective proteins dropwise into a 1-mL tube, the polyphenol compound was added and reaction was conducted at room temperature for 30 minutes. Then, it was investigated whether the SNARE complex was formed by electrophoresing on 12% SDS-PAGE.

[2] = Maximum content of ampelopsin in cosmetic composition or microneedle; assay type: physicochemical
Experimental: When ampelopsin is prepared into a cosmetic composition, only less than 0.5% (based on 5% PEG-400 and 70% water) of ampelopsin can be contained in the cosmetic composition. In contrast, a microneedle prepared by the method according to the present disclosure may contain ampelopsin up to 5% based on the dry weight of the microneedle. Accordingly, a product containing the polyphenol at high concentration can be prepared.

[3] = tested on: C2C12 cells co-cultured with neuroblasts; assay: Inhibition of muscle contraction by polyphenols, C2C12 cells co-cultured with neuroblasts; assay type: cell-based; conditions: FIG. 7; for number of contractions of the C2C12 cells: 50 ppm polyphenol, 2 hours incubation, contractions counted for 30 seconds; for effect of inhibiting neurotransmitter release compared with myricetin: 50 ppm, 2 hours
Experimental: C2C12 cells were cultured in DMEM medium supplemented with 10% fetal calf serum and 1% antibiotic on a plate. Then, neuroblasts were co-cultured additionally on the same plate. When the C2C12 cells began contraction, the number of contractions by the C2C12 cells was measured for 30 seconds. Then, after completely removing the medium and washing 3 times with PBS, the cells were incubated for 2 hours after adding a calf serum-free medium and 50 ppm of the polyphenol compound. Then, the inhibition of muscle contraction was investigated by measuring the number of contractions of the C2C12 cells again for 30 seconds.

[4] = tested on: muscle cells and neuroblasts co-culture; assay: Inhibition of muscle contraction in vitro by magnesium gluconate, co-cultured muscle cells and neuroblasts; assay type: cell-based; conditions: various concentrations, observed 10 minutes after treatment; FIG. 9
Experimental: After co-culturing muscle cells and neuroblasts in vitro and treating with magnesium gluconate at various concentrations, decrease in the number of muscle contractions was observed 10 minutes later.

Molecule	ability of inhibiting SNARE complex formation compared with myricetin [1]	inhibition of SNARE complex formation [1]	ampelopsin content that can be contained in a cosmetic composition ([2]; based on 5% PEG-400 and 70% water)	ampelopsin content that the microneedle may contain ([2]; based on the dry weight of the microneedle)	number of contractions of the C2C12 cells [3]	effect of inhibiting neurotransmitter release compared with myricetin [3]	number of muscle contractions [4]
O=C1c2c(O)cc(O)cc2O[C@H](c2cc(O)c(O)c(O)c2)[C@H]1O [ampelopsin]	better ability of inhibiting SNARE complex formation at low concentrations	effectively inhibit the SNARE complex formation in a concentration-dependent manner	less than 0.5%	up to 5%	reduce the number of contractions of the C2C12 cells	relatively higher effect of inhibiting the release than myricetin	
O=c1c(O)c(-c2ccc(O)cc2)oc2cc(O)cc(O)c12 [kaempferol]	better ability of inhibiting SNARE complex formation at low concentrations	effectively inhibit the SNARE complex formation in a concentration-dependent manner			reduce the number of contractions of the C2C12 cells	relatively higher effect of inhibiting the release than myricetin	
O=c1c(O)c(-c2cc(O)c(O)c(O)c2)oc2cc(O)cc(O)c12 [myricetin]		effectively inhibit the SNARE complex formation in a concentration-dependent manner			reduce the number of contractions of the C2C12 cells		
magnesium gluconate							significant decrease in the number of muscle contractions as the concentration of magnesium gluconate was increased
